This note sets out measurements from US9416127B2, “Triazole carboxamides and uses thereof” (Hoffmann-La Roche Inc., priority 2012, dated 2016).

Structures can show the parent of a compound that is named as a salt.

The target in one test is rat TAAR1 (Rattus norvegicus (Rat), UniProt Q923Y9). The test is described as follows: Radioligand binding assay on rat TAAR1. Particulars: rat TAAR1, HEK-293 membranes; second value of mouse/rat cell. Here is the method: (§1) Construction of TAAR Expression Plasmids and Stably Transfected Cell Lines
(§2) For the construction of expression plasmids the coding sequences of human, rat and mouse TAAR 1 were amplified from genomic DNA essentially as described by Lindemann et al.. The Expand High Fidelity PCR System (Roche Diagnostics) was used with 1.5 mM Mg^2+ and purified PCR products were cloned into pCR2.1-TOPO cloning vector (Invitrogen) following the instructions of the manufacturer. PCR products were subcloned into the pIRESneo2 vector (BD Clontech, Palo Alto, Calif.), and expression vectors were sequence verified before introduction in cell lines.
(§3) HEK293 cells (ATCC # CRL-1573) were cultured essentially as described by Lindemann et al. (2005). For the generation of stably transfected cell lines HEK293 cells were transfected with the pIRESneo2 expression plasmids containing the TAAR coding sequences (described above) with Lipofectamine 2000 (Invitrogen) according to the instructions of the manufacturer, and 24 hrs post transfection the culture medium was supplemented with 1 mg/ml G418 (Sigma, Buchs, Switzerland). After a culture period of about 10 d clones were isolated, expanded and tested for responsiveness to trace amines (all compounds purchased from Sigma) with the cAMP Biotrak Enzyme immunoassay (EIA) System (Amersham) following the non-acetylation EIA procedure provided by the manufacturer.
Radioligand Binding Assay on Rat TAAR1
(§4) Membrane Preparation and Radioligand Binding.
(§5) HEK-293 cells stably expressing rat TAAR1 were maintained at 37° C. and 5% CO2 in DMEM high glucose medium, containing fetal calf serum (10%, heat inactivated for 30 min at 56° C.), penicillin/streptomycin (1%), and 375 μg/ml geneticin (Gibco). Cells were released from culture flasks using trypsin/EDTA, harvested, washed twice with ice-cold PBS (without Ca^2+ and Mg^2+), pelleted at 1'000 rpm for 5 min at 4° C., frozen and stored at −80° C. Frozen pellets were suspended in 20 ml HEPES-NaOH (20 mM, pH 7.4) containing 10 mM EDTA and homogenized with a Polytron (PT 6000, Kinematica) at 14'000 rpm for 20 s. The homogenate was centrifuged at 48'000×g for 30 min at 4° C. Subsequently, the supernatant was removed and discarded, and the pellet resuspended in 20 ml HEPES-NaOH (20 mM, pH 7.4) containing 0.1 mM EDTA using the Polytron (20 s at 14'000 rpm). This procedure was repeated and the final pellet resuspended in HEPES-NaOH containing 0.1 mM EDTA and homogenized using the Polytron. Typically, aliquots of 2 ml membrane portions were stored at −80° C. With each new membrane batch the dissociation constant (Kd) was determined via a saturation curve. […] Nonspecific binding was defined as the amount of ^3[H]—(S)-4-[(ethyl-phenyl-amino)-methyl]-4,5-dihydro-oxazol-2-ylamine bound in the presence of 10 μM unlabeled ligand. All compounds were tested at a broad range of concentrations (10 μM to 10 μM) in duplicates. […] The 96 deep well plates were incubated for 1 hr at 4° C. Incubations were terminated by rapid filtration through Unifilter-96 plates (Packard Instrument Company) and glass filters GF/C (Perkin Elmer) presoaked for 1 hr in polyethylenimine (0.3%) and washed 3 times with 1 ml of cold binding buffer. After addition of 45 μl of Microscint 40 (PerkinElmer) the Unifilter-96 plate was sealed and after 1 hr the ratioactivity counted using a TopCount Microplate Scintillation Counter (Packard Instrument Company).

A further test addresses mouse TAAR1 (Mus musculus (Mouse), UniProt Q923Y8). Description: Radioligand binding assay on mouse TAAR1. Particulars: mouse TAAR1, HEK-293 membranes; first value of mouse/rat cell. Here is the method: as §1, §2, §3
Radioligand Binding Assay on Mouse TAAR1
as §4
as §5, with “expressing mouse” for “expressing rat”, “(10 pM” for “(10 μM”

rat TAAR1, sequence (Q923Y9 whole entry): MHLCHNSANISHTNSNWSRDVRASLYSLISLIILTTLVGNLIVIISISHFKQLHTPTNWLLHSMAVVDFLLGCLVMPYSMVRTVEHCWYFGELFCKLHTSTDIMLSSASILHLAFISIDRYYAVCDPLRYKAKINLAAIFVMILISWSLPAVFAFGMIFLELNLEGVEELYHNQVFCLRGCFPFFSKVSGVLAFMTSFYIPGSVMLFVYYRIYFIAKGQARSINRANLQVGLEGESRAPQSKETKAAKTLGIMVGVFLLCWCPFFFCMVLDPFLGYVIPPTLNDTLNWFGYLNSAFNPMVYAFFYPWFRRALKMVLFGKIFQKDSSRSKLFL
mouse TAAR1, sequence (Q923Y8 whole entry): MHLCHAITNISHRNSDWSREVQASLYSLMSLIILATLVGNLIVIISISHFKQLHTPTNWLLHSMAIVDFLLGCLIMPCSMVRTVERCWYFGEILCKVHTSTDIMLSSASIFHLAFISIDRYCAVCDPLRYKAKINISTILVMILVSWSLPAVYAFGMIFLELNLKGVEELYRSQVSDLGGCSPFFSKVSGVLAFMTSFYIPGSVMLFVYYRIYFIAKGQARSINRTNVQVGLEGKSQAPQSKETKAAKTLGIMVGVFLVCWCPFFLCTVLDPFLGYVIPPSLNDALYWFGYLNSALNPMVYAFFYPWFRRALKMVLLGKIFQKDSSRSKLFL

Broadly, the Ki is the equilibrium dissociation constant of an inhibitor or competing ligand from its target. For `O=C(Nc1ccc(C2CCNC2)cc1)c1cn(-c2ccc(OC(F)F)cc2)nn1` (racemic) [Example 33, (RS)-1-(4-(Difluoromethoxy)phenyl)-N-(4-(pyrrolidin-3-yl)phenyl)-1H-1,2,3-triazole-4-carboxamide], the Ki at rat TAAR1 was 0.0189 µM; on mouse TAAR1, 0.0049 µM.

On to `O=C(Nc1ccc(C2CCNC2)cc1)c1cnn(-c2ccccc2)n1` (racemic) [Example 34, (RS)-2-Phenyl-N-(4-(pyrrolidin-3-yl)phenyl)-2H-1,2,3-triazole-4-carboxamide], for which the Ki is 0.001 µM at rat TAAR1 and 0.0032 µM at mouse TAAR1.

In turn, `O=C(Nc1ccc(C2CCCNC2)cc1)c1cnn(-c2ccccc2)n1` (racemic) [Example 35, (RS)-2-Phenyl-N-(4-(piperidin-3-yl)phenyl)-2H-1,2,3-triazole-4-carboxamide] displayed a Ki at rat TAAR1 of 0.0017 µM.

As to `O=C(Nc1ccc([C@H]2CNCCO2)cc1)c1cnn(-c2ccccc2)n1` [Example 1, (S)—N-(4-(Morpholin-2-yl)phenyl)-2-phenyl-2H-1,2,3-triazole-4-carboxamide hydrochloride], the Ki on rat TAAR1 was determined as 0.0013 µM; at mouse TAAR1, 0.0012 µM.

Regarding `Cc1nn(-c2ccccc2)nc1C(=O)Nc1ccc([C@H]2CNCCO2)cc1` [Example 2, (S)-5-Methyl-N-(4-(morpholin-2-yl)phenyl)-2-phenyl-2H-1,2,3-triazole-4-carboxamide hydrochloride], the Ki was 0.0008 µM on rat TAAR1 and 0.0015 µM at mouse TAAR1.

As to `O=C(Nc1ccc([C@H]2CNCCO2)cc1)c1cnn(-c2ccc(Cl)cc2)n1` [Example 6, (S)-2-(4-Chlorophenyl)-N-(4-(morpholin-2-yl)phenyl)-2H-1,2,3-triazole-4-carboxamide hydrochloride], the Ki worked out at 0.0002 µM at rat TAAR1 and 0.0004 µM at mouse TAAR1.

Consider `Cc1nn(-c2ccccc2)nc1C(=O)Nc1ccc([C@@H]2CNCCO2)cc1` [Example 7, (R)-5-Methyl-N-(4-(morpholin-2-yl)phenyl)-2-phenyl-2H-1,2,3-triazole-4-carboxamide hydrochloride], for which the Ki was 0.0002 µM on rat TAAR1 and 0.0027 µM at mouse TAAR1.

With `O=C(Nc1ccc([C@@H]2CNCCO2)cc1)c1cnn(-c2ccccc2)n1` [Example 8, (R)—N-(4-(Morpholin-2-yl)phenyl)-2-phenyl-2H-1,2,3-triazole-4-carboxamide hydrochloride], the results for the Ki on rat TAAR1 and at mouse TAAR1 were 0.0008 µM and 0.0014 µM, respectively.

Turning to `O=C(Nc1ccc([C@H]2CNCCO2)cc1)c1cnn(-c2ccc(F)cc2)n1` [Example 9, (S)-2-(4-Fluorophenyl)-N-(4-(morpholin-2-yl)phenyl)-2H-1,2,3-triazole-4-carboxamide hydrochloride], the Ki at rat TAAR1 turned out to be 0.0006 µM; on mouse TAAR1, 0.0004 µM.

For the compound `O=C(Nc1ccc([C@H]2CNCCO2)cc1)c1cnn(-c2ccc(C(F)(F)F)cc2)n1` [Example 10, (S)—N-(4-(Morpholin-2-yl)phenyl)-2-(4-(trifluoromethyl)phenyl)-2H-1,2,3-triazole-4-carboxamide hydrochloride], the Ki on rat TAAR1 is 0.0002 µM; on mouse TAAR1, 0.0004 µM.

`O=C(Nc1ccc([C@H]2CNCCO2)cc1)c1cnn(-c2cccc(F)c2)n1` [Example 11, (S)-2-(3-Fluorophenyl)-N-(4-(morpholin-2-yl)phenyl)-2H-1,2,3-triazole-4-carboxamide hydrochloride]: the Ki at rat TAAR1 was 0.0004 µM; on mouse TAAR1, 0.0003 µM.

`O=C(Nc1ccc([C@H]2CNCCO2)cc1)c1cnn(-c2cccc(Cl)c2)n1` [Example 12, (S)-2-(3-Chlorophenyl)-N-(4-(morpholin-2-yl)phenyl)-2H-1,2,3-triazole-4-carboxamide hydrochloride]: the Ki on rat TAAR1 and on mouse TAAR1 was 0.0002 µM each time.

In the case of `O=C(Nc1ccc([C@H]2CNCCO2)cc1)c1cnn(-c2cccc(C(F)(F)F)c2)n1` [Example 13, (S)—N-(4-(Morpholin-2-yl)phenyl)-2-(3-(trifluoromethyl)phenyl)-2H-1,2,3-triazole-4-carboxamide hydrochloride], the Ki at rat TAAR1 worked out at 0.0006 µM; on mouse TAAR1, 0.0003 µM.
